Experimental data reported in patent US20050260126A1 (priority 2002, published 2005).
Where a name gives a salt, the structure may show the parent alone. Read-outs that look alike come from different tables or passages of the source.

Experiments:
ScN2a cells = conditions: for Concentration of inhibiting cell proliferation TC: mouse
[1] = system: abnormal prion proteins in ScN2a cells with persistent infection of scrapie; assay: cells; type: cell-based, mouse; conditions: for IC50: Mus musculus, ScN2a, 96 h, read-out: Inhibitory effects on producing abnormal prion protein IC50; for Inhibitory effects on producing abnormal prion proteins (in words): ScN2a cells
[2] = system: abnormal prion proteins (kuru plaques) in brain sections of GSS patients; parameters: species or system human; conditions: GSS patient brain sections, 10-200 μM in 50% ethanol, 30 minutes
[3] = Slc:ICR, mouse, not told, iv
in vivo = conditions: male, Crj:CD1, mouse, iv
[4] = system: abnormal prion proteins in ScN2a cells with persistent infection of scrapie; conditions: read-out: Inhibitory effects on producing abnormal prion protein IC50 (quinacrine, literature), Doh-ura et al. 2000; cited from earlier work

| SMILES | Concentration of inhibiting cell proliferation TC (ScN2a cells) | IC50 [1] | Detection of spotted depositions of abnormal prion proteins (fluorescent signals) [2] | Permeability into the brain: content in Brain [3] | Permeability into the brain: content in Plasma [3] | MTD (in vivo) | IC50 [4] | TC and safety concentration margin (in words) (ScN2a cells) | Inhibitory effects on producing abnormal prion proteins (in words) [1] |
| --- | --- | --- | --- | --- | --- | --- | --- | --- | --- |
| CCN(CC)c1ccc(/C=C/c2nc3ccccc3o2)cc1 [BF-125, 4-[2-(2-benzoxazolyl)ethenyl]-N,N-diethyl benzeneamine hydrochloride] | 50 µM | 100 nM | spotted fluorescent signals were observed | 3.0 % ID/g or ml | 2.5 % ID/g or ml | ≥ 10 mg/kg | – | – | – |
| CN(C)c1ncc(/C=C/c2nc3ccc(OCCF)cc3o2)s1 [BF-227, 2-[2-(2-dimethylamino-thiazol-5-yl)ethenyl]-6-(2-fluoroethoxy) benzoxazole] | 10 µM | 4 nM | spotted fluorescent signals were observed | 7.9 % ID/g or ml | 2.1 % ID/g or ml | ≥ 10 mg/kg | – | – | – |
| CCN(CC)CCCC(C)Nc1c2ccc(Cl)cc2nc2ccc(OC)cc12 (centres unmarked) [quinacrine] | – | – | – | – | – | – | 400 nM | – | – |
| C(=C\c1nc2ccccc2s1)/c1ccccc1 [Compound N-438, 2-(2-phenylethenyl)-benzothiazole] | 100 µM | 10 nM | spotted fluorescent signals were observed | 11 % ID/g or ml | 1.9 % ID/g or ml | ≥ 10 mg/kg | – | – | – |
| C(=C\c1nc2ccccc2o1)/c1ccccc1 [Compound N-407, 2-(2-phenylethenyl)-benzoxazole] | 100 µM | 1 nM | spotted fluorescent signals were observed | 16.0 % ID/g or ml | 1.3 % ID/g or ml | ≥ 10 mg/kg | – | higher TCs, therefore higher safety concentration margins | highly inhibitory effects |
| CCN(CC)c1ccc(/C=C/c2nc3ccccc3s2)cc1 [BF-124, 4-[2-(2-benzothiazolyl)-ethenyl]-N,N-diethyl-benzenamine hydrochloride] | 100 µM | 100 nM | spotted fluorescent signals were observed | 2.4 % ID/g or ml | 1.6 % ID/g or ml | ≥ 10 mg/kg | – | – | – |
| CNc1ccc(/C=C/c2nc3cc(F)ccc3o2)cc1 [BF-145, 2-(4-methylamino)-stryl-5-fluoro-benzoxazole] | 50 µM | 5 nM | spotted fluorescent signals were observed | 4.4 % ID/g or ml | 1.2 % ID/g or ml | ≥ 10 mg/kg | – | – | – |
| CNc1ccc(/C=C/c2nc3ccc(O)cc3o2)cc1 [BF-165, 2-(4-methylamino)-styl-6-hydroxy-benzoazole] | 100 µM | 10 nM | spotted fluorescent signals were observed | 7.2 % ID/g or ml | 1.9 % ID/g or ml | ≥ 10 mg/kg | – | – | – |
| CN(C)c1ccc(/C=C/c2ccc3ccccc3n2)cc1 [BF-179, 2-[2-(4-dimethylamino-phenyl)ethenyl]-quinoline] | 5 µM | 5 nM | spotted fluorescent signals were observed | 4.3 % ID/g or ml | 1.7 % ID/g or ml | ≥ 10 mg/kg | – | – | – |
| Cc1ccc2sc(/C=C/c3ccc(Cl)cc3)nc2c1 [Compound N-441, 2-[2-(4-chlorophenyl)ethenyl]-5-methyl-benzothiazole] | 100 µM | 1 nM | spotted fluorescent signals were observed | 5.6 % ID/g or ml | 2.7 % ID/g or ml | ≥ 10 mg/kg | – | higher TCs, therefore higher safety concentration margins | highly inhibitory effects |
